What was measured:
[1] = system: TGFβ/SMAD Signaling Pathway SBE reporter cell line; test: TGFβ reporter assay, in vitro small molecule screening (luciferase); type: cell-based; conditions: TGFβ stimulation, luminescence
How it was run: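 SBE luciferase reporter cells (~0.5×10^6 cells/mL) preincubated with compound 5-6 h at 37 °C in 0.5% FBS MEM, then stimulated with TGFβ (12 ng/mL stock) for 18 h. Luminescence read after luciferase substrate; EC50 from curve fits.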

[2] = target: T1, TGFBR2 (Homo sapiens, UniProt P37173); test: TGFBR2 RBC assay (enzyme inhibition assay, Reaction Biology Corp.); type: biochemical
T1 construct: purchased Reaction Biology Corp
Method: Compounds of the disclosure were also assayed by Reaction Biology Corp. using the TGFBR2 RBC assay (enzyme inhibition assay). […] NT refers to not tested.

T1 sequence (P37173 23-567): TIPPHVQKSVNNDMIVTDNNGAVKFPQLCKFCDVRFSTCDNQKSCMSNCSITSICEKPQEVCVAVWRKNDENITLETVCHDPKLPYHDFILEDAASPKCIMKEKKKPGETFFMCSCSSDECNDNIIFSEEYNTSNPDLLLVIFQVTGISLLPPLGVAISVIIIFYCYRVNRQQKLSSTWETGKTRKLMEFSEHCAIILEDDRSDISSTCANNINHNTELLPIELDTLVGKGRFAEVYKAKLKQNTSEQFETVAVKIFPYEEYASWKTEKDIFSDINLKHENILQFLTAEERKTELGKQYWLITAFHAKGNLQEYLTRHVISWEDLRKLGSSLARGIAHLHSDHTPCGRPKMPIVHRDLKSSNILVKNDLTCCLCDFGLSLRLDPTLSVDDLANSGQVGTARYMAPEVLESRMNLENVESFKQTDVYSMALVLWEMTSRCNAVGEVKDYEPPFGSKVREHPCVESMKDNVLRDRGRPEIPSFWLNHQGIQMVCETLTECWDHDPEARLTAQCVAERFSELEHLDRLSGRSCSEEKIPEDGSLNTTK

| Compound | EC50 [1] [µM] | IC50 [2] [µM] |
| --- | --- | --- |
| C[C@H]1CN(c2ccncc2NC(=O)c2nc(-c3ccc(CCNC(=O)OCc4ccccc4)cc3)cnc2N)CCO1 [Compound 28] | 0.1 to 1 | 0.1 to 1 |
| NCC1NCCc2cc(-c3cnc(N)c(C(=O)Nc4cnccc4N4CCOCC4)n3)ccc21 (stereo not drawn) [Compound 235] | 0.1 to 1 | < 0.05 |
| Nc1ncc(-c2ccc(CCNC(=O)OCc3ccccc3)cc2)nc1C(=O)Nc1cnccc1-c1cccnc1 [Compound 128] | 0.1 to 1 | < 0.05 |
| Nc1ncc(-c2ccc(CCNC(=O)OCc3ccccc3)cc2)nc1C(=O)Nc1cnccc1-c1ccncc1F [Compound 23] | 0.1 to 1 | < 0.05 |
| CC1(C)CCNc2ccc(-c3cnc(N)c(C(=O)Nc4cnccc4N4CCOCC4)n3)cc21 [Compound 214] | 0.1 to 1 | < 0.05 |
| Nc1ncc(-c2ccc(CCNC(=O)OCc3ccccc3)cc2)nc1C(=O)Nc1cnccc1N1CCOCCC1=O [Compound 47] | > 1 | > 1 |
| CC(COc1ccc(-c2cnc(N)c(C(=O)Nc3cnccc3N3CCOCC3)n2)cc1)NC(=O)OC(C)(C)C (stereo not drawn) [Compound 204] | > 1 | < 0.05 |
| CC(C)(C)OC(=O)N[C@H](CO)Cc1ccc(-c2cnc(N)c(C(=O)Nc3cnccc3N3CCOCC3)n2)cc1 [Compound 209] | 0.1 to 1 | < 0.05 |
| CC(C)(C)OC(=O)N1CCc2ccc(-c3cnc(N)c(C(=O)Nc4cnccc4N4CCOCC4)n3)cc2C1 [Compound 68] | 0.1 to 1 | < 0.05 |
| COC(=O)[C@@H](Cc1ccc(-c2cnc(N)c(C(=O)Nc3cnccc3N3CCOCC3)n2)cc1)NC(=O)OC(C)(C)C [Compound 192] | 0.1 to 1 | < 0.05 |
| Nc1ncc(-c2ccc(N3CCNCC3=O)cc2)nc1C(=O)Nc1cnccc1N1CCOCC1 [Compound 84] | 0.1 to 1 | 0.1 to 1 |
| Nc1ncc(-c2ccc3c(c2)CCC3)nc1C(=O)Nc1cnccc1N1CCOCC1 [Compound 185] | 0.1 to 1 | < 0.05 |
| CC(CN)Oc1ccc(-c2cnc(N)c(C(=O)Nc3cnccc3N3CCCCOCC3)n2)cc1 (stereo not drawn) [Compound 257] | > 1 | < 0.05 |
| NCCOc1cccc(-c2cnc(N)c(C(=O)Nc3cnccc3N3CCOCC3)n2)c1 [Compound 184] | 0.1 to 1 | < 0.05 |
| Nc1nc(-c2ccc(CCC(=O)N3CCN(C(=O)OCc4ccccc4)CC3)cc2)cnc1C(=O)Nc1cnccc1N1CCOCC1 [Compound 86] | 0.1 to 1 | < 0.05 |
| CC(C)(C)OC(=O)NC1CCc2cc(-c3cnc(N)c(C(=O)Nc4cnccc4N4CCOCC4)n3)ccc21 (stereo not drawn) [Compound 215] | 0.1 to 1 | < 0.05 |
| COc1cccc(-c2ccncc2NC(=O)c2nc(-c3ccc(CCNC(=O)OCc4ccccc4)cc3)cnc2N)c1 [Compound 24] | 0.1 to 1 | 0.1 to 1 |
| Nc1ncc(-c2ccc(CCNC(=O)OCc3ccccc3)cc2)nc1C(=O)Nc1cnccc1CN1CCCC1 [Compound 72] | 0.1 to 1 | 0.05 to 0.1 |
| Nc1ncc(-c2ccc(CCCCNC(=O)OCc3ccccc3)cc2)nc1C(=O)Nc1cnccc1N1CCOCC1 [Compound 74] | 0.1 to 1 | 0.05 to 0.1 |
| C[C@H](NC(=O)OCC1c2ccccc2-c2ccccc21)C(=O)NCc1ccc(-c2cnc(N)c(C(=O)Nc3cnccc3N3CCOCC3)n2)cc1 [Compound 105] | 0.1 to 1 | 0.1 to 1 |
| Nc1ncc(-c2ccc(N3CC[C@@H](N)C3)cc2)nc1C(=O)Nc1cnccc1N1CCOCC1 [Compound 278] | 0.05 to 0.1 | < 0.05 |
| COCCN(C)c1ccncc1NC(=O)c1nc(-c2ccc(CCN)cc2)cnc1N [Compound 102] | 0.1 to 1 | 0.1 to 1 |
| COC(=O)[C@@H](N)Cc1ccc(-c2cnc(N)c(C(=O)Nc3cnccc3N3CCOCC3)n2)cc1 [Compound 203] | > 1 | < 0.05 |
| CC(COc1cccc(-c2cnc(N)c(C(=O)Nc3cnccc3N3CCOCC3)n2)c1)NC(=O)OC(C)(C)C (stereo not drawn) [Compound 189] | > 1 | < 0.05 |
| CC(C)(C)OC(=O)N1CCc2cc(-c3cnc(N)c(C(=O)Nc4cnccc4N4CCOCC4)n3)ccc2C1CN (stereo not drawn) [Compound 230] | 0.05 to 0.1 | < 0.05 |
| Nc1ncc(-c2ccc(CCNC(=O)OCc3ccccc3)cc2)nc1C(=O)Nc1cnccc1N1CCS(=O)(=O)CC1 [Compound 52] | 0.1 to 1 | > 1 |

| Compound | EC50 [1] [µM] | IC50 [2] [µM] |
| --- | --- | --- |
| CC1CCNc2ccc(-c3cnc(N)c(C(=O)Nc4cnccc4N4CCOCC4)n3)cc21 (stereo not drawn) [Compound 216] | 0.05 to 0.1 | < 0.05 |
| COc1ccc(OC)c(-c2cnc(N)c(C(=O)Nc3cnccc3N3CCOCC3)n2)c1 [Compound 159] | 0.1 to 1 | 0.1 to 1 |
| Nc1ncc(-c2ccc(CCNC(=O)OCc3ccccc3)cc2)nc1C(=O)Nc1cnccc1-c1ccnc(Cl)c1 [Compound 18] | 0.1 to 1 | > 1 |
| CC(C)[C@H](N)C(=O)N[C@@H](C)C(=O)NCc1ccc(-c2cnc(N)c(C(=O)Nc3cnccc3N3CCOCC3)n2)cc1 [Compound 108] | 0.05 to 0.1 | 0.05 to 0.1 |
| COCCCN(C)c1ccncc1NC(=O)c1nc(-c2ccc(CCN)cc2)cnc1N [Compound 103] | 0.1 to 1 | < 0.05 |
| CC(C)(C)OC(=O)N[C@@H]1CCN(c2ccc(-c3cnc(N)c(C(=O)Nc4cnccc4N4CCOCC4)n3)cc2)C1 [Compound 274] | 0.1 to 1 | < 0.05 |
| Nc1ncc(-c2ccc(CCNC(=O)OCc3ccccc3)cc2)nc1C(=O)Nc1cnccc1N1CCOCC1=O [Compound 35] | 0.1 to 1 | 0.1 to 1 |
| CCOC(=O)[C@@H]1CN(Cc2ccccc2)C[C@H]1c1ccc(-c2cnc(N)c(C(=O)Nc3cnccc3N3CCOCC3)n2)cc1 [Compound 226] | 0.1 to 1 | < 0.05 |
| CC1NCCc2cc(-c3cnc(N)c(C(=O)Nc4cnccc4N4CCOCC4)n3)ccc21 (stereo not drawn) [Compound 234] | 0.1 to 1 | < 0.05 |
| CCc1nccn1-c1ccncc1NC(=O)c1nc(-c2ccc(CCN)cc2)cnc1N [Compound 140] | > 1 | < 0.05 |
| [N-]=[N+]=NCC1COCCN1c1ccncc1NC(=O)c1nc(-c2ccc(CCNC(=O)OCc3ccccc3)cc2)cnc1N (stereo not drawn) [Compound 27] | > 1 | > 1 |
| COc1ccccc1-c1cnc(N)c(C(=O)Nc2cnccc2N2CCOCC2)n1 [Compound 150] | > 1 | 0.1 to 1 |
| Nc1ncc(-c2ccc(CC(=O)NCCNC(=O)OCc3ccccc3)cc2)nc1C(=O)Nc1cnccc1N1CCOCC1 [Compound 94] | 0.1 to 1 | < 0.05 |
| CNc1ncc(-c2ccc(OC(C)CN)cc2)nc1C(=O)Nc1cnccc1N1CCOCC1 (stereo not drawn) [Compound 254] | > 1 | > 1 |
| Nc1ncc(-c2ccccc2Cl)nc1C(=O)Nc1cnccc1N1CCOCC1 [Compound 151] | 0.1 to 1 | 0.05 to 0.1 |
| Nc1ncc(-c2cccc(CCNC(=O)OCc3ccccc3)c2)nc1C(=O)Nc1cnccc1N1CCOCC1 [Compound 177] | 0.1 to 1 | 0.05 to 0.1 |
| NCCc1ccc(-c2cnc(N)c(C(=O)Nc3cnc4ccccc4c3N3CCOCC3)n2)cc1 [Compound 130] | > 1 | > 1 |
| COC(=O)[C@H](Cc1ccc(-c2cnc(N)c(C(=O)Nc3cnccc3N3CCOCC3)n2)cc1)NC(=O)OC(C)(C)C [Compound 200] | > 1 | < 0.05 |
| COc1cc(-c2ccncc2NC(=O)c2nc(-c3ccc(CCNC(=O)OCc4ccccc4)cc3)cnc2N)ccn1 [Compound 21] | 0.1 to 1 | > 1 |
| NCCc1cc(F)c(-c2cnc(N)c(C(=O)Nc3cnccc3N3CCOCC3)n2)c(F)c1 [Compound 57] | 0.1 to 1 | 0.1 to 1 |
| NCCc1ccc(-c2cnc(N)c(C(=O)Nc3cnccc3N3CCOCC3)n2)cn1 [Compound 125] | > 1 | 0.1 to 1 |
| NCCc1ccc(-c2cnc(N)c(C(=O)Nc3cnccc3-n3ccnc3)n2)cc1 [Compound 136] | > 1 | < 0.05 |
| COc1ccc(-c2ccncc2NC(=O)c2nc(-c3ccc(CCNC(=O)OCc4ccccc4)cc3)cnc2N)cc1 [Compound 14] | > 1 | > 1 |
| Nc1ncc(-c2ccc3c(c2)CCC(=O)N3)nc1C(=O)Nc1cnccc1N1CCOCC1 [Compound 198] | 0.1 to 1 | 0.05 to 0.1 |
| CC(C)(C)OC(=O)N1CCN(Cc2ccc(-c3cnc(N)c(C(=O)Nc4cnccc4N4CCOCC4)n3)cc2)C(=O)C1 [Compound 85] | < 0.05 | < 0.05 |
